Key:
WEHI-3B cells = assay: WEHI-3B tumor growth under the skin in mice (S-thioalkylphosphonate); type: in vivo
Protocol: We also provide data on the activity of S-thioalkylphosphonate to delay growth of tumor in the mice. WEHI-3B cells were grown in mice under the skin. Three days after the injection of cancer cells the mice received daily 10 mg/kg thialkylphosphonate for 21 days. The control mice received the saline alone instead of the drug. After 21 days, the tumor volume was measured. […] The tumor volume was measured in CM^3.

[1] = tested on: RPMI7915 cells (human melanoma); assay: effect of S-thioalkylphosphonate on tumor cell line (% of control); type: cell-based
P388 tumor cells = assay: colonogenic cell survival assay; type: cell-based; details: Mus musculus, 120 h, P388, soft agar, 5 days, read-out: Number of colonies Formed (% of Control)
Protocol: (§1) Inhibition of colony formation in soft agar medium (colonogenic cell survival assay) is a more rigorous and direct measurement of cell kill or growth inhibition, and reflects the anti-cancer activity of the test compound. Briefly, tumor cells were cultured in petri dishes in methylcellulose, with or without a phosphonate test compound, and the number of colonies formed during a 5-day incubation period were counted.
The efficacy of 4-hexadecylthio-3-methoxybutane phosphonocholine on the growth of a mouse […] tumor was evaluated. The P388 cell line was cultured in a soft agar in the presence and absence of various concentrations of thioalkylphosphonate for 5 days, the number of tumor colonies formed during this period of time was registered.

L1210 tumor cells = assay: colonogenic cell survival assay; type: cell-based; details: Mus musculus, 120 h, L1210, soft agar, read-out: Number of Colonies Formed (% of Control)
Protocol: as §1
The effectiveness of S-thioalkylphosphonate on the growth of a lymphoma cell line was also investigated. L1210 is a mouse B-Cell tumor (lymphoma), was tested in soft agar for susceptibility to the cytotoxic action of thioalkylphosphonate.

[2] = tested on: human colon carcinoma (HT29); assay: effect of S-thioalkylphosphonate on tumor cell line (% of control); type: cell-based; details: read-out: HT29 cells (% of control)

CCCCCCCCCCCCCCCCSCC(CCP(=O)([O-])OCC[N+](C)(C)C)OC (stereo not shown) [S-Thioalkylphosphonocholine, 4-hexadecylthio-3-methoxybutane phosphonocholine]
reduction of tumor size (WEHI-3B cells; after 21 days, daily 10 mg/kg): about 50% | Tumor Volume at Day 21 (WEHI-3B cells; daily 10 mg/kg for 21 days, from three days after injection of cancer cells): .0359 ± 0.128 cm^3 | activity at 0.6 µM ([1]; RPMI-7951, 0.6 μM): 98% | activity at 1.25 µM ([1]; RPMI-7951, 1.25 μM): 80% | activity at 2.5 µM ([1]; RPMI-7951, 2.5 μM): 78% | activity at 5 µM ([1]; RPMI-7951, 5 μM): 63% | activity at 10 µM ([1]; RPMI-7951, 10 μM): 40% | activity at 20 µM ([1]; RPMI-7951, 20 μM): 29% | activity at 40 µM ([1]; RPMI-7951, 40 μM): 0% | activity at 0.62 µM (P388 tumor cells; 0.62 μM): 55% | activity at 1.25 µM (P388 tumor cells; 1.25 μM): 43.7% | activity at 2.5 µM (P388 tumor cells; 2.5 μM): 41% | activity at 5 µM (P388 tumor cells; 5 μM): 29% | activity at 10 µM (P388 tumor cells; 10 μM): 3% | activity at 20 µM (P388 tumor cells; 20 μM): 1% | activity at 0.65 µM (L1210 tumor cells; 0.65 μM): 65% | activity at 1.25 µM (L1210 tumor cells; 1.25 μM): 47% | activity at 2.5 µM (L1210 tumor cells; 2.5 μM): 30.5% | activity at 5 µM (L1210 tumor cells; 5 μM): 30% | activity at 10 µM (L1210 tumor cells; 10 μM): 20.5% | activity at 20 µM (L1210 tumor cells; 20 μM): 14% | activity at 0.6 µM ([2]; HT-29, 0.6 μM): 99% | activity at 1.25 µM ([2]; HT-29, 1.25 μM): 83% | activity at 2.5 µM ([2]; HT-29, 2.5 μM): 71% | activity at 5 µM ([2]; HT-29, 5 μM): 54% | activity at 10 µM ([2]; HT-29, 10 μM): 45% | activity at 20 µM ([2]; HT-29, 20 μM): 18% | activity at 40 µM ([2]; HT-29, 40 μM): 1%
